6 compounds from patent publication US20010039952A1, “ULTRASOUND ENHANCED CHEMOTHERAPY” (Walter A. Hacker, Ph. D, priority 1998, published 2001) can be followed below.

Series [1] concerns peritoneal carcinomatosis. Put plainly: Instillation of chemotherapy directly into the abdomen with low energy ultrasound in a patient with peritoneal carcinomatosis (Examples III, IV). In kind it is in vivo. The settings on record: with ultrasound at less than 100 kHz and less than 50 W; intraperitoneal instillation. On the procedure:
The chosen drug is dissolved in 100 ml of normal saline, injected into the catheter and followed by another 100 ml of normal saline for flushing. The patient's position is shifted every few minutes for an hour to disperse the drug. […] The chosen drug is bleomycin (15 units), 5-fluorouracil(1000 mg), thiotepa (45 mg) Adriamycin (30 mg) cisplatin, or a-IFN.
The procedure set forth in Example III is repeated with the chosen drug administered with microbubbles and the interval of repeated doses is further increased.

The test system of another series is hepatic metastases. The following applies: human, in vivo.

For the compound `COc1cccc2c1C(=O)c1c(O)c3c(c(O)c1C2=O)C[C@@](O)(C(=O)CO)C[C@@H]3O[C@H]1C[C@H](N)[C@H](O)[C@H](C)O1` [Adriamycin, Doxorubicin], in series [1], the “interval of repeated doses” value is “increases the interval of repeated doses”. Moreover, the drug toxicity entry in the series with hepatic metastases was “less drug toxicity”. Regarding `N.N.[Cl][Pt][Cl]` [cisplatin], the “interval of repeated doses” value in series [1] is given as “increases the interval of repeated doses”. On to `O=c1[nH]c(=O)n([C@H]2C[C@H](O)[C@@H](CO)O2)cc1F` [flexuridine], for which, in the series with hepatic metastases, the drug toxicity result is on record as “less drug toxicity”. As for `O=c1[nH]cc(F)c(=O)[nH]1` [fluorouracil], in series [1], the “interval of repeated doses” value is recorded as “increases the interval of repeated doses”. In the series with hepatic metastases, the drug toxicity result is recorded as “less drug toxicity”.

Regarding `S=P(N1CC1)(N1CC1)N1CC1` [thiotepa], the “interval of repeated doses” value in series [1] is “increases the interval of repeated doses”. The same measure, in the same setting: under bleomycin stands “increases the interval of repeated doses”.
